Source: patent US6699864B2, “Substituted phenyl-piperazine derivatives, their preparation and use” (H. Lundbeck A/S, priority 1999, dated 2004)
Structures can show the parent of a compound that is named as a salt.

What was measured:
human 5-HT1A receptors = target: T1, human 5-HT1A receptors (Homo sapiens, UniProt P08908); experiment: Inhibition of 3H-5-CT binding to human 5-HT1A receptors; conditions: cloned human 5-HT1A receptors expressed in HeLa cells (HA7); 15 minutes at 37° C., pH 7.7
T1 construct: expressed in transfected cells; host or cells: HeLa cells (HA7)
T1 sequence (P08908 1-422): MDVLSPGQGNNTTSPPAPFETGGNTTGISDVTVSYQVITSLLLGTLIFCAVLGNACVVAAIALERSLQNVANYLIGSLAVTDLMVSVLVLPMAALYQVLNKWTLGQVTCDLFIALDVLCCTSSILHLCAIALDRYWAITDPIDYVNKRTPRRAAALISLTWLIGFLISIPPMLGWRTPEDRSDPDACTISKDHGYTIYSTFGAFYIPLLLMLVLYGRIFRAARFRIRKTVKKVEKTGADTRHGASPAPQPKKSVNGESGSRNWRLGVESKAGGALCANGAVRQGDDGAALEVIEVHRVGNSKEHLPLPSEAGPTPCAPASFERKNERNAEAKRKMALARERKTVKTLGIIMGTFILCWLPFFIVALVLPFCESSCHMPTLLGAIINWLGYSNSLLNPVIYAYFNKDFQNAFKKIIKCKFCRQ
Procedure: The affinity of the compounds of the invention to 5-HT1A receptors was determined by measuring the inhibition of binding of a radioactive ligand at 5-HT1A receptors as described in the following test:
Inhibition of ^3H-5-CT Binding to Human 5-HT1A Receptors.
By this method, the inhibition by drugs of the binding of the 5-HT1A agonist ^3H-5-carboxamido tryptamine (^3H-5-CT) to cloned human 5-HT1A receptors stably expressed in transfected HeLa cells (HA7) (Fargin, A. et al, J. Biol. Chem., 1989, 264, 14848) is determined in vitro. The assay was performed as a modification of the method described by Harrington, M. A. et al, J. Pharmacol. Exp. Ther., 1994, 268, 1098. Human 5-HT1A receptors (40 μg of cell homogenate) were incubated for 15 minutes at 37° C. in 50 mM Tris buffer at pH 7.7 in the presence of ^3H-5-CT. Non-specific binding was determined by including 10 μM of metergoline. The reaction was terminated by rapid filtration through Unifilter GF/B filters on a Tomtec Cell Harvester. Filters were counted in a Packard Top Counter.

[1] = target: T2, 3H-5-HT uptake into whole rat brain synaptosomes (serotonin reuptake) (Rattus norvegicus, UniProt P31652); experiment: Inhibition of 3H-5-HT uptake into rat brain synaptosomes; format: biochemical; conditions: for IC50: in vitro; for inhibition at 0.1 µM: at 100 nM
T2 construct: whole rat brain synaptosomes; from tissue; host or cells: whole rat brain synaptosomes
Procedure: Inhibition of ^3H-5-HT Uptake Into Rat Brain Synaptosomes
Using this method, the ability of drugs to inhibit the accumulation of ^3H-5-HT into whole rat brain synaptosomes is determined in vitro. The assay was performed as described by Hyttel, J., Psychopharmacology 1978, 60, 13.

T2 sequence (P31652 whole entry): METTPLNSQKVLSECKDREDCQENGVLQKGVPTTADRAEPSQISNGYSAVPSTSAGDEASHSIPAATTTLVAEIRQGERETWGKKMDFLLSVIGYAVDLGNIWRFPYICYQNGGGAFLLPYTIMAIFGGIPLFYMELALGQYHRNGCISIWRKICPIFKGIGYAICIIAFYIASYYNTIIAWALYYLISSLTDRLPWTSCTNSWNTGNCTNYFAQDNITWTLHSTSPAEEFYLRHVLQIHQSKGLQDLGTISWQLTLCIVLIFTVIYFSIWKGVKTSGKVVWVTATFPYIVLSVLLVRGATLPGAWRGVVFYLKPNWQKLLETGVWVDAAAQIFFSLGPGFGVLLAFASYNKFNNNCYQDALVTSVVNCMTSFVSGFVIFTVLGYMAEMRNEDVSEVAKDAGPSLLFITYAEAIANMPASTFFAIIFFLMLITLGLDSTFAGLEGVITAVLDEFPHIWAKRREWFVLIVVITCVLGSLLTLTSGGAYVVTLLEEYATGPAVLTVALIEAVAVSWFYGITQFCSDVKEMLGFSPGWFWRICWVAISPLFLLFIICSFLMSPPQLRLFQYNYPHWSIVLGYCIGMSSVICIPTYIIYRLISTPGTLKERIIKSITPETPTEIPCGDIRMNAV

Row | Structure (SMILES) | melting point | IC50 (human 5-HT1A receptors) | IC50 [1] | inhibition at 0.1 µM [1]
1 | Clc1ccc2c(CCCN3CCN(c4ccccc4Oc4ccc5c(c4)OCO5)CC3)c[nH]c2c1 (as salt: hydrochloride) [Compound 2c, 1-[2-(1,3-Benzodioxolan-5-Yloxy)Phenyl]-4-[3-(6-Chloro-1H-Indol-3-Yl)Propyl]Piperazine] | 165 °C (dec.) |  |  | 
2 | COc1ccccc1Oc1ccccc1N1CCN(CCCc2c[nH]c3ccc(F)cc23)CC1 (as salt: hydrochloride) [Compound 2d, 1-[2-(2-Methoxyphenoxy)Phenyl]-4-[3-(5-Fluoro-1H-Indol-3-Yl)Propyl]Piperazine] | 183 to 189 °C |  |  | 
3 | c1ccc(N2CCN(CCc3c[nH]c4ccccc34)CC2)c(Oc2ccc3c(c2)OCO3)c1 (as salt: oxalate) [Compound 1b, 1-[2-(1,3-Benzodioxolan-5-yloxy)phenyl]-4-[2-(1H-indol-3-yl)ethyl]piperazine] | 221 to 228 °C |  |  | 
4 | c1ccc(N2CCN(CCCc3c[nH]c4ccccc34)CC2)c(Oc2ccc3c(c2)OCO3)c1 (as salt: oxalate) [Compound 2b, 1-[2-(1,3-Benzodioxolan-5-Yloxy)Phenyl]-4-[3-(1H-Indol-3-Yl)Propyl]Piperazine] | 156 to 162 °C |  |  | 
5 | c1ccc(N2CCN(CCc3c[nH]c4ccccc34)CC2)c(Oc2ccc3c(c2)OCO3)c1 [Compound 1b, 1-[2-(1,3-Benzodioxolan-5-yloxy)phenyl]-4-[2-(1H-indol-3-yl)ethyl]piperazine] |  | 0.0078 µM | 0.13 µM | 
6 | c1ccc(N2CCN(CCCc3c[nH]c4ccccc34)CC2)c(Oc2ccc3c(c2)OCO3)c1 [Compound 2b, 1-[2-(1,3-Benzodioxolan-5-Yloxy)Phenyl]-4-[3-(1H-Indol-3-Yl)Propyl]Piperazine] |  | 0.016 µM | 0.0028 µM | 
7 | c1ccc(N2CCN(CCCCc3c[nH]c4ccccc34)CC2)c(Oc2ccc3c(c2)OCO3)c1 [Compound 3c] |  | 0.016 µM |  | 27%
8 | Clc1ccc2c(CCN3CCN(c4ccccc4Oc4ccc5c(c4)OCO5)CC3)c[nH]c2c1 [Compound 3e, 1-[2-(1,3-Benzodioxolan-5-yloxy)phenyl]-4-[2-(6-chloro-1H-indol-3-yl)ethyl]piperazine] |  | 0.024 µM |  | 40%

Now from value to compound:

Row | melting point | IC50 (human 5-HT1A receptors) | IC50 [1] | inhibition at 0.1 µM [1] | Structure (SMILES)
9 |  | 0.019 µM | 0.014 µM |  | Fc1ccc2[nH]cc(CCCN3CCN(c4ccccc4Oc4cccc5c4OCCO5)CC3)c2c1 [Compound 5a, 1-[2-(1,4-Benzodioxan-5-Yloxy)Phenyl]-4-[3-(5-Fluoro-1H-Indol-3-Yl)Propyl]Piperazine]
10 |  | 0.026 µM |  | 42% | c1ccc(N2CCN(CCCc3c[nH]c4ccccc34)CC2)c(Oc2cccc3c2OCCO3)c1 [Compound 5ae, 1-[2-(1,4-Benzodioxan-5-yloxy)phenyl]-4-[3-(1H-indol-3-yl)propyl]piperazine]
11 |  | 0.026 µM | 0.023 µM |  | Fc1ccc2[nH]cc(CCCN3CCN(c4ccccc4Oc4cccc(N5CCOCC5)c4)CC3)c2c1 [Compound 5ag, 1-{2-[3-(Morpholin-4-yl)phenoxy]phenyl}-4-[3-(5-fluoro-1H-indol-3-yl)propyl]piperazine]
12 |  | 0.028 µM |  | 34% | CCOc1cccc(Oc2ccccc2N2CCN(CCCc3c[nH]c4ccc(C)cc34)CC2)c1 [Compound 5ai, 1-[2-(3-Ethoxyphenoxy)phenyl]-4-[3-(5-methyl-1H-indol-3-yl)propyl]piperazine]
13 |  | 0.01 µM | 0.013 µM |  | c1ccc(Oc2ccccc2N2CCN(CCCc3c[nH]c4ccccc34)CC2)cc1 [Compound 5e, 1-(2-Phenoxyphenyl)-4-[3-(1H-indol-3-yl)propyl]piperazine]
14 |  | 0.01 µM | 0.0048 µM |  | Fc1ccc2[nH]cc(CCCN3CCN(c4ccccc4Oc4ccccc4)CC3)c2c1 [Compound 5f, 1-(2-Phenoxyphenyl)-4-[3-(5-fluoro-1H-indol-3-yl)propyl]piperazine]
15 |  | 0.01 µM |  | 55% | COc1cccc(OC)c1Oc1ccccc1N1CCN(CCCc2c[nH]c3ccc(Br)cc23)CC1 [Compound 5h, 1-[2-(2,6-Dimethoxyphenoxy)phenyl]-4-[3-(5-bromo-1H-indol-3-yl)propyl]piperazine]
16 |  | 0.01 µM |  | 46% | Cc1ccc2[nH]cc(CCCN3CCN(c4ccccc4Oc4cccc(N(C)C)c4)CC3)c2c1 [Compound 5i, 1-(2-[3-(Dimethylamino)phenoxy]phenyl]-4-[3-(5-methyl-1H-indol-3-yl)propyl]piperazine]
17 |  | 0.013 µM | 0.0047 µM |  | COc1ccccc1Oc1ccccc1N1CCN(CCCc2c[nH]c3ccc(F)cc23)CC1 [Compound 5l, 1-[2-(2-Methoxyphenoxy)phenyl]-4-[3-(5-fluoro-1H-indol-3-yl)propyl]piperazine]
18 |  | 0.018 µM | 0.033 µM |  | COc1ccccc1Oc1ccccc1N1CCN(CCCc2c[nH]c3c(F)cc(F)cc23)CC1 [Compound 5x, 1-[2-(2-Methoxyphenoxy)phenyl]-4-[3-(5,7-difluoro-1H-indol-3-yl)propyl]piperazine]
